Experiments:
[1] = Free plasma concentration in rat plasma at 1 mg/kg administered as cassette dose; assay type: ADME, organism-based; settings: in vivo
[2] = molecular target: T1, P2X purinoceptor 2 (Homo sapiens, UniProt Q9UBL9); assay: Antagonist activity at P2X2 receptor (unknown origin)
T1 sequence (Q9UBL9 whole entry): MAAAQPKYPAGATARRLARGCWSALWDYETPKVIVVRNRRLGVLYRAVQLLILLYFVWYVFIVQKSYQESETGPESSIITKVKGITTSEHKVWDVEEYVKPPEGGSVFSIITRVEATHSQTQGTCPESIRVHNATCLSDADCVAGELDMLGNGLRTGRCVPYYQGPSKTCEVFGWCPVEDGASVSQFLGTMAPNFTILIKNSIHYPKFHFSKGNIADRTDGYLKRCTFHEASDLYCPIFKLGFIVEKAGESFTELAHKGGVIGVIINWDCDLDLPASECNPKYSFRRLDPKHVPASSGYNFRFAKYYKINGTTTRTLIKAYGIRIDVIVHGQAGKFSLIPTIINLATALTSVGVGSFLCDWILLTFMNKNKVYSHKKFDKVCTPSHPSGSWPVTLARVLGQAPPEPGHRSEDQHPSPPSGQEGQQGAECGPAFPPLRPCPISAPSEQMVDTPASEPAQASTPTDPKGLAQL

[3] = molecular target: Cytochrome P450 2C19 (Homo sapiens, UniProt P33261); assay: Inhibition of CYP2C19 (unknown origin); assay type: ADME
Cytochrome P450 2C19, sequence (P33261 whole entry): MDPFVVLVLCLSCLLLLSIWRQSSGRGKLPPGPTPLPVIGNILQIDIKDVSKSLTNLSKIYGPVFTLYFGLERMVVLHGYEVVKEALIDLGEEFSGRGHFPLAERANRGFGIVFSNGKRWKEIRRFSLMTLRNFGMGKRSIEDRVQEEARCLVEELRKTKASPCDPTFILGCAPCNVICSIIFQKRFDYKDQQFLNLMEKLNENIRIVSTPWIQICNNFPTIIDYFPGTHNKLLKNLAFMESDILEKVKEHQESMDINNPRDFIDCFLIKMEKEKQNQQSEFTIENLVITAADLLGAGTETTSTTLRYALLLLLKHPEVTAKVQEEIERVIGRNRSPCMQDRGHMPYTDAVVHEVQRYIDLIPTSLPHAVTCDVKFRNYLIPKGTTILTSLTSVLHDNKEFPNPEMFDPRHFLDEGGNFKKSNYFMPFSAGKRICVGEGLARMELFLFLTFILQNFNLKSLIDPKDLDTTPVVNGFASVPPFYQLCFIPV

[4] = molecular target: Cytochrome P450 2D6 (Homo sapiens, UniProt P10635); assay: Inhibition of CYP2D6 (unknown origin); assay type: functional
Cytochrome P450 2D6, sequence (P10635 whole entry): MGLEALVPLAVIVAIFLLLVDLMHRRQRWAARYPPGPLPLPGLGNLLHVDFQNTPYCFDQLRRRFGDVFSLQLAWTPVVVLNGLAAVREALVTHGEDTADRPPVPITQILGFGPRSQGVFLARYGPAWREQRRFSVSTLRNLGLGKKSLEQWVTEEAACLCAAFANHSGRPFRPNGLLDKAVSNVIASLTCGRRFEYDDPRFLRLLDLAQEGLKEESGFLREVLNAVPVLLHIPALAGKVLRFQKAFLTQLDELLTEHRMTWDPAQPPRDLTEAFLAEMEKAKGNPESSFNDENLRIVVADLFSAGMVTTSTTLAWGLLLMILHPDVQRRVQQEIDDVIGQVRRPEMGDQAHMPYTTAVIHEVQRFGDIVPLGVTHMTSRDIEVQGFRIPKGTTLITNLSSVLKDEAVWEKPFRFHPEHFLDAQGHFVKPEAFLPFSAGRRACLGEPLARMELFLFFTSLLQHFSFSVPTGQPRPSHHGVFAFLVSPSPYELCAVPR

[5] = Half life in rat at 1 mg/kg, iv; assay type: ADME, organism-based; settings: in vivo
[6] = Protein binding in rat plasma assessed as unbound fraction at 3 mg/kg, iv; assay type: ADME, organism-based
[7] = Ratio of free plasma concentration in rat measured after 3 hrs to IC50 of P2X3 (unknown origin); assay type: ADME

SMILES: C[C@@H](Cn1c(=O)[nH]/c(=N\c2ccc(Oc3ccccn3)cc2)n(Cc2ccc(Cl)cc2)c1=O)C(=O)O
- Cp(f) [1]: 658 nM
- IC50 [2]: > 30 µM
- IC50 [3]: > 20 µM
- IC50 [4]: > 20 µM
- half-life [5]: 10.1 h
- fraction unbound [6]: 0.01
- Ratio [7]: 1.57
